# System: 521955-158-R2-J5-PDC complex spheroid growth
# Assay: Anticancer human tumor 521955-158-R2-J5-PDC patient-derived pancreatic carcinoma cell line growth inhibition [AhR]
# Conditions: for IC50: curve of first compound; for viability, T/C: stronger effect = lower value
# Procedure, shortened: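 Agents were dosed in half-log steps down from roughly clinical Cmax, or from 10 microM where Cmax was unknown, alone and with AhR antagonists. Read-out: percent test/control growth of tumor spheroids containing HUVEC and MSC stromal cells.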
# [1] = second compound 0.1 µM, first compound 0.0316 µM
# [2] = second compound 0.1 µM, first compound 0.1 µM
# [3] = second compound 0.1 µM, first compound 0.316 µM
# [4] = second compound 0.1 µM, first compound 1 µM
# [5] = second compound 0.1 µM, first compound 3.16 µM
# [6] = second compound 0.1 µM, first compound 10 µM
# [7] = second compound 0.316 µM, first compound 0.0316 µM
# [8] = second compound 0.316 µM, first compound 0.1 µM
# [9] = second compound 0.316 µM, first compound 0.316 µM
# [10] = second compound 0.316 µM, first compound 1 µM
# [11] = second compound 0.316 µM, first compound 3.16 µM
# [12] = second compound 0.316 µM, first compound 10 µM
# [13] = second compound 1 µM, first compound 0.0316 µM
# [14] = second compound 1 µM, first compound 0.1 µM
# [15] = second compound 1 µM, first compound 0.316 µM
# [16] = second compound 1 µM, first compound 1 µM
# [17] = second compound 1 µM, first compound 3.16 µM
# [18] = second compound 1 µM, first compound 10 µM
# [19] = second compound 3.16 µM, first compound 0.0316 µM
# [20] = second compound 3.16 µM, first compound 0.1 µM
# [21] = second compound 3.16 µM, first compound 0.316 µM
# [22] = second compound 3.16 µM, first compound 1 µM
# [23] = second compound 3.16 µM, first compound 3.16 µM
# [24] = second compound 3.16 µM, first compound 10 µM
# [25] = second compound 10 µM, first compound 0.0316 µM
# [26] = second compound 10 µM, first compound 0.1 µM
# [27] = second compound 10 µM, first compound 0.316 µM
# [28] = second compound 10 µM, first compound 1 µM
# [29] = second compound 10 µM, first compound 3.16 µM
# [30] = second compound 10 µM, first compound 10 µM
# [31] = second compound 0.1 µM, first compound 0.000316 µM
# [32] = second compound 0.1 µM, first compound 0.001 µM
# [33] = second compound 0.1 µM, first compound 0.00316 µM
# [34] = second compound 0.1 µM, first compound 0.01 µM
# [35] = second compound 0.316 µM, first compound 0.000316 µM
# [36] = second compound 0.316 µM, first compound 0.001 µM
# [37] = second compound 0.316 µM, first compound 0.00316 µM
# [38] = second compound 0.316 µM, first compound 0.01 µM
# [39] = second compound 1 µM, first compound 0.000316 µM
# [40] = second compound 1 µM, first compound 0.001 µM
# [41] = second compound 1 µM, first compound 0.00316 µM
# [42] = second compound 1 µM, first compound 0.01 µM
# [43] = second compound 3.16 µM, first compound 0.000316 µM
# [44] = second compound 3.16 µM, first compound 0.001 µM
# [45] = second compound 3.16 µM, first compound 0.00316 µM
# [46] = second compound 3.16 µM, first compound 0.01 µM
# [47] = second compound 10 µM, first compound 0.000316 µM
# [48] = second compound 10 µM, first compound 0.001 µM
# [49] = second compound 10 µM, first compound 0.00316 µM
# [50] = second compound 10 µM, first compound 0.01 µM
# 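Throughout, for viability, T/C: spheroids mix tumor cells with HUVEC endothelium and human MSC stroma; luminescence taken as viability surrogate after a week of drug exposure.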
smiles,measurement,setting,value
O=C(c1cc(Cc2n[nH]c(=O)c3ccccc23)ccc1F)N1CCN(C(=O)C2CC2)CC1 + Cc1cncc(-c2nc(NCCc3c[nH]c4ccccc34)c3ncn(C(C)C)c3n2)c1,IC50,second compound 0.1 µM,> 10000 nM
same,IC50,second compound 0.316 µM,> 10000 nM
same,IC50,second compound 1 µM,> 10000 nM
same,IC50,second compound 3.16 µM,> 10000 nM
same,IC50,second compound 10 µM,> 10000 nM
same,"viability, T/C",[1],106%
same,"viability, T/C",[2],97.8%
same,"viability, T/C",[3],113%
same,"viability, T/C",[4],106%
same,"viability, T/C",[5],98%
same,"viability, T/C",[6],92.4%
same,"viability, T/C",[7],101%
same,"viability, T/C",[8],114%
same,"viability, T/C",[9],109%
same,"viability, T/C",[10],102%
same,"viability, T/C",[11],86.9%
same,"viability, T/C",[12],99.5%
same,"viability, T/C",[13],119%
same,"viability, T/C",[14],116%
same,"viability, T/C",[15],115%
same,"viability, T/C",[16],99.4%
same,"viability, T/C",[17],104%
same,"viability, T/C",[18],89.2%
same,"viability, T/C",[19],142%
same,"viability, T/C",[20],133%
same,"viability, T/C",[21],121%
same,"viability, T/C",[22],135%
same,"viability, T/C",[23],115%
same,"viability, T/C",[24],126%
same,"viability, T/C",[25],139%
same,"viability, T/C",[26],156%
same,"viability, T/C",[27],167%
same,"viability, T/C",[28],117%
same,"viability, T/C",[29],114%
same,"viability, T/C",[30],123%
NS(=O)(=O)OCC1CC(n2ccc3c(NC4CCc5ccccc54)ncnc32)CC1O (stereo not given) + Cc1ccccc1N=Nc1ccc(NC(=O)c2ccnn2C)c(C)c1,IC50,second compound 0.1 µM,1360 nM
same,IC50,second compound 0.316 µM,1220 nM
same,IC50,second compound 1 µM,941 nM
same,IC50,second compound 3.16 µM,821 nM
same,IC50,second compound 10 µM,343 nM
same,"viability, T/C",[1],118%
same,"viability, T/C",[2],115%
same,"viability, T/C",[3],102%
same,"viability, T/C",[4],56.7%
same,"viability, T/C",[5],30.4%
same,"viability, T/C",[6],20.8%
same,"viability, T/C",[7],111%
same,"viability, T/C",[8],105%
same,"viability, T/C",[9],87.5%
same,"viability, T/C",[10],53.5%
same,"viability, T/C",[11],30.9%
same,"viability, T/C",[12],21.9%
same,"viability, T/C",[13],114%
same,"viability, T/C",[14],111%
same,"viability, T/C",[15],88.3%
same,"viability, T/C",[16],47.6%
same,"viability, T/C",[17],29.6%
same,"viability, T/C",[18],23.7%
same,"viability, T/C",[19],137%
same,"viability, T/C",[20],110%
same,"viability, T/C",[21],77.6%
same,"viability, T/C",[22],45.2%
same,"viability, T/C",[23],23.7%
same,"viability, T/C",[24],21.8%
same,"viability, T/C",[25],108%
same,"viability, T/C",[26],91.2%
same,"viability, T/C",[27],50.8%
same,"viability, T/C",[28],32.1%
same,"viability, T/C",[29],25.2%
same,"viability, T/C",[30],25.6%
Nc1ncn(C2CC(O)C(CO)S2)c(=O)n1 (stereo not given) + Cc1cncc(-c2nc(NCCc3c[nH]c4ccccc34)c3ncn(C(C)C)c3n2)c1,IC50,second compound 0.1 µM,> 300 nM
same,IC50,second compound 0.316 µM,> 300 nM
same,IC50,second compound 1 µM,> 300 nM
same,IC50,second compound 3.16 µM,> 300 nM
same,IC50,second compound 10 µM,> 300 nM
same,"viability, T/C","second compound 0.1 µM, first compound 0.000949 µM",115%
same,"viability, T/C","second compound 0.1 µM, first compound 0.003 µM",113%
same,"viability, T/C","second compound 0.1 µM, first compound 0.00949 µM",123%
same,"viability, T/C","second compound 0.1 µM, first compound 0.03 µM",105%
same,"viability, T/C","second compound 0.1 µM, first compound 0.0949 µM",93.3%
same,"viability, T/C","second compound 0.1 µM, first compound 0.3 µM",97.8%
same,"viability, T/C","second compound 0.316 µM, first compound 0.000949 µM",112%
same,"viability, T/C","second compound 0.316 µM, first compound 0.003 µM",112%
same,"viability, T/C","second compound 0.316 µM, first compound 0.00949 µM",117%
same,"viability, T/C","second compound 0.316 µM, first compound 0.03 µM",115%
same,"viability, T/C","second compound 0.316 µM, first compound 0.0949 µM",99.5%
same,"viability, T/C","second compound 0.316 µM, first compound 0.3 µM",93.7%
same,"viability, T/C","second compound 1 µM, first compound 0.000949 µM",126%
same,"viability, T/C","second compound 1 µM, first compound 0.003 µM",161%
same,"viability, T/C","second compound 1 µM, first compound 0.00949 µM",158%
same,"viability, T/C","second compound 1 µM, first compound 0.03 µM",125%
same,"viability, T/C","second compound 1 µM, first compound 0.0949 µM",125%
same,"viability, T/C","second compound 1 µM, first compound 0.3 µM",99%
same,"viability, T/C","second compound 3.16 µM, first compound 0.000949 µM",146%
same,"viability, T/C","second compound 3.16 µM, first compound 0.003 µM",129%
same,"viability, T/C","second compound 3.16 µM, first compound 0.00949 µM",122%
same,"viability, T/C","second compound 3.16 µM, first compound 0.03 µM",123%
same,"viability, T/C","second compound 3.16 µM, first compound 0.0949 µM",118%
same,"viability, T/C","second compound 3.16 µM, first compound 0.3 µM",128%
same,"viability, T/C","second compound 10 µM, first compound 0.000949 µM",145%
same,"viability, T/C","second compound 10 µM, first compound 0.003 µM",143%
same,"viability, T/C","second compound 10 µM, first compound 0.00949 µM",105%
same,"viability, T/C","second compound 10 µM, first compound 0.03 µM",142%
same,"viability, T/C","second compound 10 µM, first compound 0.0949 µM",114%
same,"viability, T/C","second compound 10 µM, first compound 0.3 µM",121%
CC[C@@]1(O)C(=O)OCc2c1cc1n(c2=O)Cc2cc3c(CN(C)C)c(O)ccc3nc2-1 + Cc1ccccc1N=Nc1ccc(NC(=O)c2ccnn2C)c(C)c1,IC50,second compound 0.1 µM,27.2 nM
same,IC50,second compound 0.316 µM,17.5 nM
same,IC50,second compound 1 µM,26.9 nM
same,IC50,second compound 3.16 µM,22.2 nM
same,IC50,second compound 10 µM,43.9 nM
same,"viability, T/C",[31],76.7%
same,"viability, T/C",[32],79.3%
same,"viability, T/C",[33],89.5%
same,"viability, T/C",[34],78.6%
same,"viability, T/C",[1],45.7%
same,"viability, T/C",[2],23%
same,"viability, T/C",[35],92.1%
same,"viability, T/C",[36],100%
same,"viability, T/C",[37],88.8%
same,"viability, T/C",[38],64.7%
same,"viability, T/C",[7],34.7%
same,"viability, T/C",[8],25.2%
same,"viability, T/C",[39],98.2%
same,"viability, T/C",[40],113%
same,"viability, T/C",[41],114%
same,"viability, T/C",[42],87.8%
same,"viability, T/C",[13],44.6%
same,"viability, T/C",[14],22.9%
same,"viability, T/C",[43],119%
same,"viability, T/C",[44],131%
same,"viability, T/C",[45],122%
same,"viability, T/C",[46],77.3%
same,"viability, T/C",[19],41.1%
same,"viability, T/C",[20],25.6%
same,"viability, T/C",[47],130%
same,"viability, T/C",[48],122%
same,"viability, T/C",[49],131%
same,"viability, T/C",[50],107%
same,"viability, T/C",[25],59.9%
same,"viability, T/C",[26],26.3%
Cn1ncnc1C1c2n[nH]c(=O)c3cc(F)cc(c23)NC1c1ccc(F)cc1 (stereo not given) + Cc1cncc(-c2nc(NCCc3c[nH]c4ccccc34)c3ncn(C(C)C)c3n2)c1,IC50,second compound 0.1 µM,> 100 nM
same,IC50,second compound 0.316 µM,> 100 nM
same,IC50,second compound 1 µM,> 100 nM
same,IC50,second compound 3.16 µM,> 100 nM
same,IC50,second compound 10 µM,> 100 nM
same,"viability, T/C",[31],114%
same,"viability, T/C",[32],106%
same,"viability, T/C",[33],94.6%
same,"viability, T/C",[34],109%
same,"viability, T/C",[1],93%
same,"viability, T/C",[2],83%
same,"viability, T/C",[35],105%
same,"viability, T/C",[36],121%
same,"viability, T/C",[37],93.3%
same,"viability, T/C",[38],110%
same,"viability, T/C",[7],87.6%
same,"viability, T/C",[8],101%
same,"viability, T/C",[39],122%
same,"viability, T/C",[40],117%
same,"viability, T/C",[41],116%
same,"viability, T/C",[42],127%
same,"viability, T/C",[13],116%
same,"viability, T/C",[14],99.5%
same,"viability, T/C",[43],114%
same,"viability, T/C",[44],142%
same,"viability, T/C",[45],115%
same,"viability, T/C",[46],119%
same,"viability, T/C",[19],122%
same,"viability, T/C",[20],107%
same,"viability, T/C",[47],134%
same,"viability, T/C",[48],143%
same,"viability, T/C",[49],106%
same,"viability, T/C",[50],105%
same,"viability, T/C",[25],111%
same,"viability, T/C",[26],104%

# Reference: PubChem BioAssay AID1918998 (Molecular Pharmacology Branch, DTP, NCI, 2023)
